What was measured:
Type in all cases: in vivo
Velvetleaf [1] = test: pre-emergent herbicidal activity, soil incorporation; conditions: Table III, 2 WAT, 11.2 kg/h
From the text: (§1) A good grade of top soil is placed in aluminum pans and compacted to a depth of 0.95 to 1.27 cm. from the top of each pan. A predetermined number of seeds or vegetative propagules of each of several plant species are placed on top of the soil in each pan and then pressed down. Herbicidal compositions prepared as in the previous example are applied by admixture with or incorporation in the top layer of soil.
(§2) In this method, the soil required to cover the seeds and propagules is weighed and admixed with a herbicidal composition containing a known amount of the active ingredient (compound of this invention). The pans are then filled with the admixture and leveled. Watering is carried out by permitting the soil in the pans to absorb moisture through apertures in the pan bottoms. The seed and propagule containing pans are placed on a wet sand bench and maintained for approximately two weeks under ordinary conditions of sunlight and watering. At the end of this period, the number of emerged plants of each species is noted and compared to an untreated control.
(§3) The pre-emergent herbicidal activity index used below is based upon average percent control of each species as follows: […]

Canada Thistle [2] = test: as above; conditions: Table III, 2 WAT, 11.2 kg/h
From the text: as §1, §2, §3

Morningglory [3] = test: as above; conditions: Table III, 2 WAT, 11.2 kg/h
From the text: as §1, §2, §3

Barnyardgrass [4] = test: as above; conditions: Table III, 2 WAT, 11.2 kg/h
From the text: as §1, §2, §3

Smartweed [5] = test: as above; conditions: Table III, 2 WAT, 11.2 kg/h
From the text: as §1, §2, §3

Cocklebur [6] = test: as above; conditions: Table III, 2 WAT, 11.2 kg/h
From the text: as §1, §2, §3

Johnsongrass [7] = test: as above; conditions: Table III, 2 WAT, 11.2 kg/h
From the text: as §1, §2, §3

Downy Brome [8] = test: as above; conditions: Table III, 2 WAT, 11.2 kg/h
From the text: as §1, §2, §3

Quackgrass [9] = test: as above; conditions: Table III, 2 WAT, 11.2 kg/h
From the text: as §1, §2, §3

Yellow Nutsedge [10] = test: as above; conditions: Table III, 2 WAT, 11.2 kg/h
From the text: as §1, §2, §3

Lambsquarters [11] = test: as above; conditions: Table III, 2 WAT, 11.2 kg/h
From the text: as §1, §2, §3

Velvetleaf [12] = test: post-emergent herbicidal activity, greenhouse
Method in brief: (§4)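 Post-emergence foliar spray at tabulated application rates, using aliquots of a 1.0% stock in acetone, THF or water plus ~0.4% emulsifier, applied to 2–3-week-old greenhouse plants. Plant injury was rated relative to controls roughly two and four weeks after treatment.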

Soybean = test: post-emergent herbicidal activity, greenhouse; conditions: Table II
Method in brief: as §4

Canada Thistle [13] = test: post-emergent herbicidal activity, greenhouse; conditions: Table I, 4 WAT
Method in brief: as §4

Wild Buckwheat = test: post-emergent herbicidal activity, greenhouse; conditions: Table II
Method in brief: as §4

Morningglory [14] = test: post-emergent herbicidal activity, greenhouse
Method in brief: as §4

Wheat = test: post-emergent herbicidal activity, greenhouse; conditions: Table II
Method in brief: as §4

Sorghum = test: post-emergent herbicidal activity, greenhouse; conditions: Table II
Method in brief: as §4

Panicum Spp = test: post-emergent herbicidal activity, greenhouse; conditions: Table II
Method in brief: as §4

Barnyardgrass [15] = test: post-emergent herbicidal activity, greenhouse
Method in brief: as §4

Hemp Sesbania = test: post-emergent herbicidal activity, greenhouse; conditions: Table II
Method in brief: as §4

Rice = test: post-emergent herbicidal activity, greenhouse; conditions: Table II
Method in brief: as §4

Smartweed [16] = test: post-emergent herbicidal activity, greenhouse
Method in brief: as §4

Sugar Beet = test: post-emergent herbicidal activity, greenhouse; conditions: Table II
Method in brief: as §4

Cocklebur [17] = test: post-emergent herbicidal activity, greenhouse
Method in brief: as §4

Johnsongrass [18] = test: post-emergent herbicidal activity, greenhouse; conditions: Table I, 4 WAT
Method in brief: as §4

Downy Brome [19] = test: post-emergent herbicidal activity, greenhouse
Method in brief: as §4

Quackgrass [20] = test: post-emergent herbicidal activity, greenhouse; conditions: Table I, 4 WAT
Method in brief: as §4

Yellow Nutsedge [21] = test: post-emergent herbicidal activity, greenhouse; conditions: Table I, 4 WAT
Method in brief: as §4

Lambsquarters [22] = test: post-emergent herbicidal activity, greenhouse
Method in brief: as §4

[23] = Table II, 2** WAT, 0.056 kg/h, applied in 100 GPA THF
[24] = 2** WAT, 0.056 kg/h, applied in 100 GPA THF

CCOC(=O)CNCP(=O)(O)OC(C#N)CC (stereo not drawn) [Example 8, glycine, N-[[(1-cyanopropoxy)hydroxyphosphinyl]methyl],ethyl ester]
3 (75-99% control): post-emergent herbicidal activity index (Velvetleaf [12]; Table I, 4 WAT, 5.6 kg/h) | post-emergent herbicidal activity index (Velvetleaf [12]; Table II, 4 WAT, 1.12 kg/h) | post-emergent herbicidal activity index (Velvetleaf [12]; Table II, 4 WAT, 5.6 kg/h) | post-emergent herbicidal activity index (Soybean; 4 WAT, 1.12 kg/h) | post-emergent herbicidal activity index (Wild Buckwheat; 4 WAT, 1.12 kg/h) | post-emergent herbicidal activity index (Morningglory [14]; Table I, 4 WAT, 11.2 kg/h) | post-emergent herbicidal activity index (Morningglory [14]; Table II, 4 WAT, 1.12 kg/h) | post-emergent herbicidal activity index (Morningglory [14]; Table II, 4 WAT, 5.6 kg/h) | post-emergent herbicidal activity index (Barnyardgrass [15]; Table I, 4 WAT, 5.6 kg/h) | post-emergent herbicidal activity index (Rice; 4 WAT, 1.12 kg/h) | post-emergent herbicidal activity index (Smartweed [16]; Table II, 4 WAT, 1.12 kg/h) | post-emergent herbicidal activity index (Cocklebur [17]; Table I, 4 WAT, 5.6 kg/h) | post-emergent herbicidal activity index (Cocklebur [17]; Table II, 4 WAT, 1.12 kg/h) | post-emergent herbicidal activity index (Johnsongrass [18]; 5.6 kg/h) | post-emergent herbicidal activity index (Downy Brome [19]; Table I, 4 WAT, 5.6 kg/h) | post-emergent herbicidal activity index (Downy Brome [19]; Table II, 4 WAT, 1.12 kg/h) | post-emergent herbicidal activity index (Downy Brome [19]; Table II, 4 WAT, 5.6 kg/h) | post-emergent herbicidal activity index (Yellow Nutsedge [21]; 5.6 kg/h) | post-emergent herbicidal activity index (Lambsquarters [22]; Table II, 4 WAT, 1.12 kg/h)
1 (25-49% control): pre-emergent herbicidal activity index (Yellow Nutsedge [10]) | post-emergent herbicidal activity index (Wheat; [24]) | post-emergent herbicidal activity index (Barnyardgrass [15]; [23])
0 (1-24% control): pre-emergent herbicidal activity index (Velvetleaf [1]) | pre-emergent herbicidal activity index (Morningglory [3]) | pre-emergent herbicidal activity index (Barnyardgrass [4]) | pre-emergent herbicidal activity index (Smartweed [5]) | pre-emergent herbicidal activity index (Cocklebur [6]) | pre-emergent herbicidal activity index (Downy Brome [8]) | pre-emergent herbicidal activity index (Lambsquarters [11])
2 (50-74% control): pre-emergent herbicidal activity index (Johnsongrass [7]) | pre-emergent herbicidal activity index (Quackgrass [9]) | post-emergent herbicidal activity index (Morningglory [14]; Table I, 4 WAT, 5.6 kg/h) | post-emergent herbicidal activity index (Hemp Sesbania; 4 WAT, 1.12 kg/h)
0 (0-24% control): post-emergent herbicidal activity index (Velvetleaf [12]; [23]) | post-emergent herbicidal activity index (Soybean; [24]) | post-emergent herbicidal activity index (Wild Buckwheat; [24]) | post-emergent herbicidal activity index (Morningglory [14]; [23]) | post-emergent herbicidal activity index (Sorghum; [24]) | post-emergent herbicidal activity index (Panicum Spp; [24]) | post-emergent herbicidal activity index (Hemp Sesbania; [24]) | post-emergent herbicidal activity index (Rice; [24]) | post-emergent herbicidal activity index (Smartweed [16]; [23]) | post-emergent herbicidal activity index (Sugar Beet; [24]) | post-emergent herbicidal activity index (Cocklebur [17]; [23]) | post-emergent herbicidal activity index (Downy Brome [19]; [23]) | post-emergent herbicidal activity index (Lambsquarters [22]; [23])
3 (75-100% control): pre-emergent herbicidal activity index (Canada Thistle [2])
4 (100% control): post-emergent herbicidal activity index (Velvetleaf [12]; Table I, 4 WAT, 11.2 kg/h) | post-emergent herbicidal activity index (Soybean; 4 WAT, 5.6 kg/h) | post-emergent herbicidal activity index (Canada Thistle [13]; 5.6 kg/h) | post-emergent herbicidal activity index (Canada Thistle [13]; 11.2 kg/h) | post-emergent herbicidal activity index (Wild Buckwheat; 4 WAT, 5.6 kg/h) | post-emergent herbicidal activity index (Wheat; 4 WAT, 1.12 kg/h) | post-emergent herbicidal activity index (Wheat; 4 WAT, 5.6 kg/h) | post-emergent herbicidal activity index (Sorghum; 4 WAT, 1.12 kg/h) | post-emergent herbicidal activity index (Sorghum; 4 WAT, 5.6 kg/h) | post-emergent herbicidal activity index (Panicum Spp; 4 WAT, 1.12 kg/h) | post-emergent herbicidal activity index (Panicum Spp; 4 WAT, 5.6 kg/h) | post-emergent herbicidal activity index (Barnyardgrass [15]; Table I, 4 WAT, 11.2 kg/h) | post-emergent herbicidal activity index (Barnyardgrass [15]; Table II, 4 WAT, 1.12 kg/h) | post-emergent herbicidal activity index (Barnyardgrass [15]; Table II, 4 WAT, 5.6 kg/h) | post-emergent herbicidal activity index (Hemp Sesbania; 4 WAT, 5.6 kg/h) | post-emergent herbicidal activity index (Rice; 4 WAT, 5.6 kg/h) | post-emergent herbicidal activity index (Smartweed [16]; Table I, 4 WAT, 5.6 kg/h) | post-emergent herbicidal activity index (Smartweed [16]; Table I, 4 WAT, 11.2 kg/h) | post-emergent herbicidal activity index (Smartweed [16]; Table II, 4 WAT, 5.6 kg/h) | post-emergent herbicidal activity index (Sugar Beet; 4 WAT, 1.12 kg/h) | post-emergent herbicidal activity index (Sugar Beet; 4 WAT, 5.6 kg/h) | post-emergent herbicidal activity index (Cocklebur [17]; Table I, 4 WAT, 11.2 kg/h) | post-emergent herbicidal activity index (Cocklebur [17]; Table II, 4 WAT, 5.6 kg/h) | post-emergent herbicidal activity index (Johnsongrass [18]; 11.2 kg/h) | post-emergent herbicidal activity index (Downy Brome [19]; Table I, 4 WAT, 11.2 kg/h) | post-emergent herbicidal activity index (Quackgrass [20]; 5.6 kg/h) | post-emergent herbicidal activity index (Quackgrass [20]; 11.2 kg/h) | post-emergent herbicidal activity index (Yellow Nutsedge [21]; 11.2 kg/h) | post-emergent herbicidal activity index (Lambsquarters [22]; Table I, 4 WAT, 5.6 kg/h) | post-emergent herbicidal activity index (Lambsquarters [22]; Table I, 4 WAT, 11.2 kg/h) | post-emergent herbicidal activity index (Lambsquarters [22]; Table II, 4 WAT, 5.6 kg/h)
